{"source": "ChEMBL document CHEMBL2346657", "about": "“Synthesis of novel 2-amino-4-(5'-substituted 2'-phenyl-1H-indol-3'-yl)-6-aryl-4H-pyran-3-carbonitrile derivatives as antimicrobial and antioxidant agents” (2013)", "note": "Calls of active or inactive are those of the source. How the calls were made is not given here."}
{"tested_on": "not listed separately", "experiment": "Antioxidant activity assessed as metal chelating activity by measuring inhibition of ferrozine-Fe2+ complex formation at 25 to 100 ug/ml", "format": "functional", "conditions": "not given"}
{"smiles": "N#CC1=C(N)OC(c2ccc(Cl)cc2)=CC1c1c(-c2ccccc2)[nH]c2ccccc12", "note": "(stereo not given)", "Activity": "Active"}
{"tested_on": "Aspergillus flavus", "experiment": "Antimicrobial activity against Aspergillus flavus MTCC 1973 at 500 ug/ml after 72 hrs by cup plate method", "format": "functional", "conditions": "MTCC 1973, 72 h, read-out: IZ", "units": {"zone of inhibition at 500 µg/mL": "mm"}}
{"smiles": "OC(Cn1cncn1)(Cn1cncn1)c1ccc(F)cc1F", "note": "[FLUCONAZOLE]", "zone of inhibition at 500 µg/mL": 13}
{"tested_on": "Aspergillus flavus", "experiment": "Antimicrobial activity against Aspergillus flavus MTCC 1973 at 750 ug/ml after 72 hrs by cup plate method", "format": "functional", "conditions": "MTCC 1973, 72 h, read-out: IZ", "units": {"zone of inhibition at 750 µg/mL": "mm"}}
{"smiles": "OC(Cn1cncn1)(Cn1cncn1)c1ccc(F)cc1F", "note": "[FLUCONAZOLE]", "zone of inhibition at 750 µg/mL": 13}
{"tested_on": "Aspergillus flavus", "experiment": "Antimicrobial activity against Aspergillus flavus MTCC 1973 at 1000 ug/ml after 72 hrs by cup plate method", "format": "functional", "conditions": "MTCC 1973, 72 h, read-out: IZ", "units": {"zone of inhibition at 1000 µg/mL": "mm"}}
{"smiles": "N#CC1=C(N)OC(c2ccc(Cl)cc2)=CC1c1c(-c2ccccc2)[nH]c2ccccc12", "note": "(stereo not given)", "zone of inhibition at 1000 µg/mL": 2}
{"smiles": "OC(Cn1cncn1)(Cn1cncn1)c1ccc(F)cc1F", "note": "[FLUCONAZOLE]", "zone of inhibition at 1000 µg/mL": 14}
{"tested_on": "Aspergillus terreus", "experiment": "Antimicrobial activity against Aspergillus terreus MTCC 1782 at 500 ug/ml after 72 hrs by cup plate method", "format": "functional", "conditions": "MTCC 1782, 72 h, read-out: IZ", "units": {"zone of inhibition at 500 µg/mL": "mm"}}
{"smiles": "N#CC1=C(N)OC(c2ccc(Cl)cc2)=CC1c1c(-c2ccccc2)[nH]c2ccccc12", "note": "(stereo not given)", "zone of inhibition at 500 µg/mL": 12}
{"smiles": "OC(Cn1cncn1)(Cn1cncn1)c1ccc(F)cc1F", "note": "[FLUCONAZOLE]", "zone of inhibition at 500 µg/mL": 13}
{"tested_on": "Aspergillus terreus", "experiment": "Antimicrobial activity against Aspergillus terreus MTCC 1782 at 750 ug/ml after 72 hrs by cup plate method", "format": "functional", "conditions": "MTCC 1782, 72 h, read-out: IZ", "units": {"zone of inhibition at 750 µg/mL": "mm"}}
{"smiles": "N#CC1=C(N)OC(c2ccc(Cl)cc2)=CC1c1c(-c2ccccc2)[nH]c2ccccc12", "note": "(stereo not given)", "zone of inhibition at 750 µg/mL": 13}
{"smiles": "OC(Cn1cncn1)(Cn1cncn1)c1ccc(F)cc1F", "note": "[FLUCONAZOLE]", "zone of inhibition at 750 µg/mL": 14}
{"tested_on": "Aspergillus terreus", "experiment": "Antimicrobial activity against Aspergillus terreus MTCC 1782 at 1000 ug/ml after 72 hrs by cup plate method", "format": "functional", "conditions": "MTCC 1782, 72 h, read-out: IZ", "units": {"zone of inhibition at 1000 µg/mL": "mm"}}
{"smiles": "N#CC1=C(N)OC(c2ccc(Cl)cc2)=CC1c1c(-c2ccccc2)[nH]c2ccccc12", "note": "(stereo not given)", "zone of inhibition at 1000 µg/mL": 13}
{"smiles": "OC(Cn1cncn1)(Cn1cncn1)c1ccc(F)cc1F", "note": "[FLUCONAZOLE]", "zone of inhibition at 1000 µg/mL": 14}
{"tested_on": "Aspergillus oryzae", "experiment": "Antimicrobial activity against Aspergillus oryzae MTCC 3567 at 500 ug/ml after 72 hrs by cup plate method", "format": "functional", "conditions": "MTCC 3567, 72 h, read-out: IZ", "units": {"zone of inhibition at 500 µg/mL": "mm"}}
{"smiles": "N#CC1=C(N)OC(c2ccc(Cl)cc2)=CC1c1c(-c2ccccc2)[nH]c2ccccc12", "note": "(stereo not given)", "zone of inhibition at 500 µg/mL": 9}
{"smiles": "OC(Cn1cncn1)(Cn1cncn1)c1ccc(F)cc1F", "note": "[FLUCONAZOLE]", "zone of inhibition at 500 µg/mL": 13}
{"tested_on": "Aspergillus oryzae", "experiment": "Antimicrobial activity against Aspergillus oryzae MTCC 3567 at 750 ug/ml after 72 hrs by cup plate method", "format": "functional", "conditions": "MTCC 3567, 72 h, read-out: IZ", "units": {"zone of inhibition at 750 µg/mL": "mm"}}
{"smiles": "N#CC1=C(N)OC(c2ccc(Cl)cc2)=CC1c1c(-c2ccccc2)[nH]c2ccccc12", "note": "(stereo not given)", "zone of inhibition at 750 µg/mL": 9}
{"smiles": "OC(Cn1cncn1)(Cn1cncn1)c1ccc(F)cc1F", "note": "[FLUCONAZOLE]", "zone of inhibition at 750 µg/mL": 14}
{"tested_on": "Aspergillus oryzae", "experiment": "Antimicrobial activity against Aspergillus oryzae MTCC 3567 at 1000 ug/ml after 72 hrs by cup plate method", "format": "functional", "conditions": "MTCC 3567, 72 h, read-out: IZ", "units": {"zone of inhibition at 1000 µg/mL": "mm"}}
{"smiles": "N#CC1=C(N)OC(c2ccc(Cl)cc2)=CC1c1c(-c2ccccc2)[nH]c2ccccc12", "note": "(stereo not given)", "zone of inhibition at 1000 µg/mL": 3}
{"smiles": "OC(Cn1cncn1)(Cn1cncn1)c1ccc(F)cc1F", "note": "[FLUCONAZOLE]", "zone of inhibition at 1000 µg/mL": 14}
{"tested_on": "Aspergillus niger", "experiment": "Antimicrobial activity against Aspergillus niger MTCC 281 at 500 ug/ml after 72 hrs by cup plate method", "format": "functional", "conditions": "MTCC 281, 72 h, read-out: IZ", "units": {"zone of inhibition at 500 µg/mL": "mm"}}
{"smiles": "N#CC1=C(N)OC(c2ccc(Cl)cc2)=CC1c1c(-c2ccccc2)[nH]c2ccccc12", "note": "(stereo not given)", "zone of inhibition at 500 µg/mL": 8}
{"smiles": "OC(Cn1cncn1)(Cn1cncn1)c1ccc(F)cc1F", "note": "[FLUCONAZOLE]", "zone of inhibition at 500 µg/mL": 13}
{"tested_on": "Aspergillus niger", "experiment": "Antimicrobial activity against Aspergillus niger MTCC 281 at 750 ug/ml after 72 hrs by cup plate method", "format": "functional", "conditions": "MTCC 281, 72 h, read-out: IZ", "units": {"zone of inhibition at 750 µg/mL": "mm"}}
{"smiles": "N#CC1=C(N)OC(c2ccc(Cl)cc2)=CC1c1c(-c2ccccc2)[nH]c2ccccc12", "note": "(stereo not given)", "zone of inhibition at 750 µg/mL": 6}
{"smiles": "OC(Cn1cncn1)(Cn1cncn1)c1ccc(F)cc1F", "note": "[FLUCONAZOLE]", "zone of inhibition at 750 µg/mL": 13}
{"tested_on": "Aspergillus niger", "experiment": "Antimicrobial activity against Aspergillus niger MTCC 281 at 1000 ug/ml after 72 hrs by cup plate method", "format": "functional", "conditions": "MTCC 281, 72 h, read-out: IZ", "units": {"zone of inhibition at 1000 µg/mL": "mm"}}
{"smiles": "N#CC1=C(N)OC(c2ccc(Cl)cc2)=CC1c1c(-c2ccccc2)[nH]c2ccccc12", "note": "(stereo not given)", "zone of inhibition at 1000 µg/mL": 5}
{"smiles": "OC(Cn1cncn1)(Cn1cncn1)c1ccc(F)cc1F", "note": "[FLUCONAZOLE]", "zone of inhibition at 1000 µg/mL": 14}
{"tested_on": "Pseudomonas aeruginosa", "experiment": "Antimicrobial activity against Pseudomonas aeruginosa MTCC 1688 at 500 ug/ml after 24 hrs by cup plate method", "format": "functional", "conditions": "MTCC 1688, 24 h, read-out: IZ", "units": {"zone of inhibition at 500 µg/mL": "mm"}}
{"smiles": "N#CC1=C(N)OC(c2ccc(Cl)cc2)=CC1c1c(-c2ccccc2)[nH]c2ccccc12", "note": "(stereo not given)", "zone of inhibition at 500 µg/mL": 10}
{"tested_on": "Pseudomonas aeruginosa", "experiment": "Antimicrobial activity against Pseudomonas aeruginosa MTCC 1688 at 750 ug/ml after 24 hrs by cup plate method", "format": "functional", "conditions": "MTCC 1688, 24 h, read-out: IZ", "units": {"zone of inhibition at 750 µg/mL": "mm"}}
{"smiles": "N#CC1=C(N)OC(c2ccc(Cl)cc2)=CC1c1c(-c2ccccc2)[nH]c2ccccc12", "note": "(stereo not given)", "zone of inhibition at 750 µg/mL": 8}
{"tested_on": "Pseudomonas aeruginosa", "experiment": "Antimicrobial activity against Pseudomonas aeruginosa MTCC 1688 at 1000 ug/ml after 24 hrs by cup plate method", "format": "functional", "conditions": "MTCC 1688, 24 h, read-out: IZ", "units": {"zone of inhibition at 1000 µg/mL": "mm"}}
{"smiles": "N#CC1=C(N)OC(c2ccc(Cl)cc2)=CC1c1c(-c2ccccc2)[nH]c2ccccc12", "note": "(stereo not given)", "zone of inhibition at 1000 µg/mL": 8}
{"tested_on": "Klebsiella pneumoniae", "experiment": "Antimicrobial activity against Klebsiella pneumoniae NCTC 13368 at 500 ug/ml after 24 hrs by cup plate method", "format": "functional", "conditions": "NCTC 13368, 24 h, read-out: IZ", "units": {"zone of inhibition at 500 µg/mL": "mm"}}
{"smiles": "N#CC1=C(N)OC(c2ccc(Cl)cc2)=CC1c1c(-c2ccccc2)[nH]c2ccccc12", "note": "(stereo not given)", "zone of inhibition at 500 µg/mL": 2}
{"tested_on": "Klebsiella pneumoniae", "experiment": "Antimicrobial activity against Klebsiella pneumoniae NCTC 13368 at 750 ug/ml after 24 hrs by cup plate method", "format": "functional", "conditions": "NCTC 13368, 24 h, read-out: IZ", "units": {"zone of inhibition at 750 µg/mL": "mm"}}
{"smiles": "N#CC1=C(N)OC(c2ccc(Cl)cc2)=CC1c1c(-c2ccccc2)[nH]c2ccccc12", "note": "(stereo not given)", "zone of inhibition at 750 µg/mL": 2}
{"tested_on": "Klebsiella pneumoniae", "experiment": "Antimicrobial activity against Klebsiella pneumoniae NCTC 13368 at 1000 ug/ml after 24 hrs by cup plate method", "format": "functional", "conditions": "NCTC 13368, 24 h, read-out: IZ", "units": {"zone of inhibition at 1000 µg/mL": "mm"}}
{"smiles": "N#CC1=C(N)OC(c2ccc(Cl)cc2)=CC1c1c(-c2ccccc2)[nH]c2ccccc12", "note": "(stereo not given)", "zone of inhibition at 1000 µg/mL": 2}
{"tested_on": "Staphylococcus aureus", "experiment": "Antimicrobial activity against Staphylococcus aureus ATCC 29513 at 500 ug/ml after 24 hrs by cup plate method", "format": "functional", "conditions": "ATCC 29513, 24 h, read-out: IZ", "units": {"zone of inhibition at 500 µg/mL": "mm"}}
{"smiles": "N#CC1=C(N)OC(c2ccc(Cl)cc2)=CC1c1c(-c2ccccc2)[nH]c2ccccc12", "note": "(stereo not given)", "zone of inhibition at 500 µg/mL": 10}
{"tested_on": "Staphylococcus aureus", "experiment": "Antimicrobial activity against Staphylococcus aureus ATCC 29513 at 750 ug/ml after 24 hrs by cup plate method", "format": "functional", "conditions": "ATCC 29513, 24 h, read-out: IZ", "units": {"zone of inhibition at 750 µg/mL": "mm"}}
{"smiles": "N#CC1=C(N)OC(c2ccc(Cl)cc2)=CC1c1c(-c2ccccc2)[nH]c2ccccc12", "note": "(stereo not given)", "zone of inhibition at 750 µg/mL": 10}
{"tested_on": "Staphylococcus aureus", "experiment": "Antimicrobial activity against Staphylococcus aureus ATCC 29513 at 1000 ug/ml after 24 hrs by cup plate method", "format": "functional", "conditions": "ATCC 29513, 24 h, read-out: IZ", "units": {"zone of inhibition at 1000 µg/mL": "mm"}}
{"smiles": "N#CC1=C(N)OC(c2ccc(Cl)cc2)=CC1c1c(-c2ccccc2)[nH]c2ccccc12", "note": "(stereo not given)", "zone of inhibition at 1000 µg/mL": 10}
{"tested_on": "Escherichia coli", "experiment": "Antimicrobial activity against Escherichia coli MTCC 723 at 500 ug/ml after 24 hrs by cup plate method", "format": "functional", "conditions": "MTCC 723, 24 h, read-out: IZ", "units": {"zone of inhibition at 500 µg/mL": "mm"}}
{"smiles": "N#CC1=C(N)OC(c2ccc(Cl)cc2)=CC1c1c(-c2ccccc2)[nH]c2ccccc12", "note": "(stereo not given)", "zone of inhibition at 500 µg/mL": 5}
{"tested_on": "Escherichia coli", "experiment": "Antimicrobial activity against Escherichia coli MTCC 723 at 750 ug/ml after 24 hrs by cup plate method", "format": "functional", "conditions": "MTCC 723, 24 h, read-out: IZ", "units": {"zone of inhibition at 750 µg/mL": "mm"}}
{"smiles": "N#CC1=C(N)OC(c2ccc(Cl)cc2)=CC1c1c(-c2ccccc2)[nH]c2ccccc12", "note": "(stereo not given)", "zone of inhibition at 750 µg/mL": 5}
{"tested_on": "Escherichia coli", "experiment": "Antimicrobial activity against Escherichia coli MTCC 723 at 1000 ug/ml after 24 hrs by cup plate method", "format": "functional", "conditions": "MTCC 723, 24 h, read-out: IZ", "units": {"zone of inhibition at 1000 µg/mL": "mm"}}
{"smiles": "N#CC1=C(N)OC(c2ccc(Cl)cc2)=CC1c1c(-c2ccccc2)[nH]c2ccccc12", "note": "(stereo not given)", "zone of inhibition at 1000 µg/mL": 3}
